How the values were obtained:
late watergrass = test: Test Example 1: herbicidal activity, application before weed generation under submerged conditions (Table 16, symbol A); assay type: in vivo, late watergrass (Echinochloa oryzicola); conditions: 320 g/ha applied herbicide
Summary of the method: (§1)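 Emulsion formulation, water-diluted to set dose, was put onto the flooded surface (4 cm depth, alluvial soil) the same day weeds were sown and 2.5-leaf rice transplanted. After 3 weeks at 25-30 °C under glass, each species was rated 0 (≤5% kill) to 5 (≥90% kill).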

rice flat sedge = test: Test Example 3: herbicidal effect by foliage application, Wagner pot (Table 18, symbol E); assay type: in vivo, rice flat sedge (Cyperus iria); conditions: 320 g/ha
Summary of the method: (§2)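 Plants were sown in alluvial soil held under 0.1–0.5 cm standing water and grown 14 days in a greenhouse at 25–30 °C. An emulsifiable formulation, water-diluted to the set dose, was then sprayed onto the foliage, and effects were scored three weeks later using previously defined criteria.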

velvetleaf = test: Test Example 4: herbicidal effect by soil treatment (Table 19, symbol M); assay type: in vivo, velvetleaf (Abutilon theophrasti); conditions: 320 g/ha
Summary of the method: (§3)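 Scoring uses the grading scale of an earlier test, three weeks post-application. Treatment consists of spraying a diluted emulsion formulation across the surface of sterilized diluvial soil in which seeds are buried near 1.5 cm deep; boxes are kept in a greenhouse between 25° C. and 30° C.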

oval-leafed pondweed = test: Test Example 1: herbicidal activity, application before weed generation under submerged conditions (Table 16, symbol C); assay type: in vivo, oval-leafed pondweed (Monochoria vaginalis); conditions: 320 g/ha applied herbicide
Summary of the method: as §1

redroot pigweed = test: Test Example 4: herbicidal effect by soil treatment (Table 19, symbol N); assay type: in vivo, redroot pigweed (Amaranthus retroflexus); conditions: 320 g/ha
Summary of the method: as §3

chickweed = test: Test Example 4: herbicidal effect by soil treatment (Table 19, symbol P); assay type: in vivo, common chickweed (Stellaria media); conditions: 320 g/ha
Summary of the method: as §3

green foxtail = test: Test Example 4: herbicidal effect by soil treatment (Table 19, symbol G); assay type: in vivo, green foxtail (Setaria viridis); conditions: 320 g/ha
Summary of the method: as §3

barnyard grass [1] = test: Test Example 4: herbicidal effect by soil treatment (Table 19, symbol H); assay type: in vivo, barnyard grass (Echinochloa crus-galli); conditions: 320 g/ha
Summary of the method: as §3

persian speedwell [2] = test: Test Example 4: herbicidal effect by soil treatment (Table 19, symbol R); assay type: in vivo, Persian speedwell (Veronica persica); conditions: 320 g/ha
Summary of the method: as §3

Japanese bulrush = test: Test Example 2: herbicidal activity, application during weed generation under submerged conditions (Table 17, symbol B); assay type: in vivo, Japanese bulrush (Schoenoplectus juncoides); conditions: AAH 320 g/ha; application during weed generation, submerged conditions
Summary of the method: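 Mixed weed seedlings in alluvial soil under a 4 cm water layer, greenhouse-grown at 25–30° C. Compound given as a diluted emulsion into the floodwater at the 1–2 leaf stage; response graded after three weeks.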

barnyard grass [3] = test: Test Example 5: herbicidal effect by foliage application, plastic box (Table 20, symbol H); assay type: in vivo, barnyard grass (Echinochloa crus-galli); conditions: foliage application, 320 g/ha; for effect on barnyard grass (H): 3 weeks after application; for herbicidal effect on H: barnyard grass: evaluated three weeks after application
Summary of the method: (§4)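 Post-emergence foliar test in sterilized diluvial soil. Compound applied as water-diluted emulsion at a predetermined rate to 14-day-old plants; evaluation at three weeks.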

blackgrass = test: Test Example 5: herbicidal effect by foliage application, plastic box (Table 20, symbol J); assay type: in vivo, blackgrass (Alopecurus myosuroides); conditions: foliage application, 320 g/ha; for effect on blackgrass (J): 3 weeks after application; for herbicidal effect on J: blackgrass: evaluated three weeks after application
Summary of the method: as §4

southern crabgrass = test: Test Example 5: herbicidal effect by foliage application, plastic box (Table 20, symbol F); assay type: in vivo, southern crabgrass (Digitaria ciliaris); conditions: foliage application, 320 g/ha; for effect on southern crabgrass (F): 3 weeks after application; for herbicidal effect on F: southern crabgrass: evaluated three weeks after application
Summary of the method: as §4

persian speedwell [4] = test: Test Example 5: herbicidal effect by foliage application, plastic box (Table 20, symbol R); assay type: in vivo, Persian speedwell (Veronica persica); conditions: foliage application, 320 g/ha; for effect on persian speedwell (R): 3 weeks after application; for herbicidal effect on R: persian speedwell: evaluated three weeks after application
Summary of the method: as §4

barnyard grass [5] = test: Test Example 3: herbicidal effect by foliage application, Wagner pot (Table 18, symbol H); assay type: in vivo, barnyard grass (Echinochloa crus-galli); conditions: 320 g/ha
Summary of the method: as §2

wild oat = test: Test Example 5: herbicidal effect by foliage application, plastic box (Table 20, symbol I); assay type: in vivo, wild oat (Avena fatua); conditions: foliage application, 320 g/ha; for effect on wild oat (I): 3 weeks after application; for herbicidal effect on I: wild oat: evaluated three weeks after application
Summary of the method: as §4

SMILES | Herbicidal effect on A: late watergrass (grade 0-5) (late watergrass) | herbicidal effect on E (rice flat sedge), rating 0-5 (rice flat sedge) | herbicidal effect rating, M: velvetleaf (velvetleaf) | Herbicidal effect on C: oval-leafed pondweed (grade 0-5) (oval-leafed pondweed) | herbicidal effect rating, N: redroot pigweed (redroot pigweed) | herbicidal effect rating, P: chickweed (chickweed) | herbicidal effect rating, G: green foxtail (green foxtail) | herbicidal effect rating, H: barnyard grass (barnyard grass [1]) | herbicidal effect rating, R: persian speedwell (persian speedwell [2]) | herbicidal effect rating, B: Japanese bulrush (Japanese bulrush) | effect on barnyard grass (H) (barnyard grass [3]) | effect on blackgrass (J) (blackgrass) | effect on southern crabgrass (F) (southern crabgrass) | effect on persian speedwell (R) (persian speedwell [4]) | herbicidal effect on H (barnyard grass), rating 0-5 (barnyard grass [5]) | herbicidal effect on H: barnyard grass (barnyard grass [3]) | herbicidal effect on J: blackgrass (blackgrass) | herbicidal effect on F: southern crabgrass (southern crabgrass) | herbicidal effect on R: persian speedwell (persian speedwell [4]) | herbicidal effect on I: wild oat (wild oat) | other results
CCCC(=O)Oc1c(C)nn(C)c(=O)c1-c1c(-c2ccc(OC(F)(F)F)cc2)sc2ccc(F)cc12 [2-046] | 4 (Herbicidal rate of 70% or more and less than 90%) | 5 (Herbicidal rate of 90% or more (almost completely withered)) | 3 (Herbicidal rate of 40% or more and less than 70%) | 3 (Herbicidal rate of 40% or more and less than 70%) | 4 (Herbicidal rate of 70% or more and less than 90%) | 5 (Herbicidal rate of 90% or more (almost completely withered)) | 4 (Herbicidal rate of 70% or more and less than 90%) | 3 (Herbicidal rate of 40% or more and less than 70%) | 5 (Herbicidal rate of 90% or more (almost completely withered)) | 3 (Herbicidal rate of 40% or more and less than 70%) | 5 (Herbicidal rate of 90% or more (almost completely withered)) | 0 (Herbicidal rate of 5% or less (almost no effect)) | 0 (Herbicidal rate of 5% or less (almost no effect)) | 5 (Herbicidal rate of 90% or more (almost completely withered)) | 5 (Herbicidal rate of 90% or more (almost completely withered)) |  |  |  |  |  | effect on wild oat (I) (wild oat): 0 (Herbicidal rate of 5% or less (almost no effect))
Cc1nn(C)c(=O)c(-c2c(-c3ccc(OCCF)cc3)sc3ccc(F)cc23)c1O [2-047] | 3 (Herbicidal rate of 40% or more and less than 70%) | 5 (Herbicidal rate of 90% or more (almost completely withered)) | 5 (Herbicidal rate of 90% or more (almost completely withered)) | 2 (Herbicidal rate of 20% or more and less than 40%) | 5 (Herbicidal rate of 90% or more (almost completely withered)) | 4 (Herbicidal rate of 70% or more and less than 90%) | 5 (Herbicidal rate of 90% or more (almost completely withered)) | 5 (Herbicidal rate of 90% or more (almost completely withered)) | 5 (Herbicidal rate of 90% or more (almost completely withered)) | 3 (Herbicidal rate of 40% or more and less than 70%) | 5 (Herbicidal rate of 90% or more (almost completely withered)) | 4 (Herbicidal rate of 70% or more and less than 90%) | 5 (Herbicidal rate of 90% or more (almost completely withered)) | 5 (Herbicidal rate of 90% or more (almost completely withered)) | 5 (Herbicidal rate of 90% or more (almost completely withered)) |  |  |  |  |  | effect on wild oat (I) (wild oat): 3 (Herbicidal rate of 40% or more and less than 70%)
Cc1nn(C)c(=O)c(-c2c(-c3ccc(OCC(F)(F)F)cc3)sc3ccc(F)cc23)c1O [2-049] | 2 (Herbicidal rate of 20% or more and less than 40%) | 5 (Herbicidal rate of 90% or more (almost completely withered)) | 5 (Herbicidal rate of 90% or more (almost completely withered)) | 3 (Herbicidal rate of 40% or more and less than 70%) | 5 (Herbicidal rate of 90% or more (almost completely withered)) | 5 (Herbicidal rate of 90% or more (almost completely withered)) | 5 (Herbicidal rate of 90% or more (almost completely withered)) | 5 (Herbicidal rate of 90% or more (almost completely withered)) | 4 (Herbicidal rate of 70% or more and less than 90%) | 2 (Herbicidal rate of 20% or more and less than 40%) |  |  |  |  | 5 (Herbicidal rate of 90% or more (almost completely withered)) | 5 (Herbicidal rate of 90% or more (almost completely withered)) | 5 (Herbicidal rate of 90% or more (almost completely withered)) | 5 (Herbicidal rate of 90% or more (almost completely withered)) | 5 (Herbicidal rate of 90% or more (almost completely withered)) | 5 (Herbicidal rate of 90% or more (almost completely withered)) | 
C=CCOc1ccc(-c2sc3ccc(F)cc3c2-c2c(O)c(C)nn(C)c2=O)cc1 [2-051] | 3 (Herbicidal rate of 40% or more and less than 70%) | 5 (Herbicidal rate of 90% or more (almost completely withered)) | 3 (Herbicidal rate of 40% or more and less than 70%) | 4 (Herbicidal rate of 70% or more and less than 90%) | 5 (Herbicidal rate of 90% or more (almost completely withered)) | 1 (Herbicidal rate of 5% or more and less than 20%) | 5 (Herbicidal rate of 90% or more (almost completely withered)) | 4 (Herbicidal rate of 70% or more and less than 90%) | 4 (Herbicidal rate of 70% or more and less than 90%) | 3 (Herbicidal rate of 40% or more and less than 70%) |  |  |  |  | 5 (Herbicidal rate of 90% or more (almost completely withered)) | 5 (Herbicidal rate of 90% or more (almost completely withered)) | 5 (Herbicidal rate of 90% or more (almost completely withered)) | 5 (Herbicidal rate of 90% or more (almost completely withered)) | 5 (Herbicidal rate of 90% or more (almost completely withered)) | 4 (Herbicidal rate of 70% or more and less than 90%) | 
C#CCOc1ccc(-c2sc3ccc(F)cc3c2-c2c(O)c(C)nn(C)c2=O)cc1 [2-053] | 2 (Herbicidal rate of 20% or more and less than 40%) | 4 (Herbicidal rate of 70% or more and less than 90%) | 3 (Herbicidal rate of 40% or more and less than 70%) | 4 (Herbicidal rate of 70% or more and less than 90%) | 0 (Herbicidal rate of 5% or less (almost no effect)) | 1 (Herbicidal rate of 5% or more and less than 20%) | 4 (Herbicidal rate of 70% or more and less than 90%) | 2 (Herbicidal rate of 20% or more and less than 40%) | 5 (Herbicidal rate of 90% or more (almost completely withered)) | 3 (Herbicidal rate of 40% or more and less than 70%) |  |  |  |  | 5 (Herbicidal rate of 90% or more (almost completely withered)) | 5 (Herbicidal rate of 90% or more (almost completely withered)) | 4 (Herbicidal rate of 70% or more and less than 90%) | 4 (Herbicidal rate of 70% or more and less than 90%) | 5 (Herbicidal rate of 90% or more (almost completely withered)) | 2 (Herbicidal rate of 20% or more and less than 40%) | 
